Reference: a compilation of properties of binary mixtures (doi:10.1039/c7qm00510e)

Test: xn = mol fraction of the nth substance listed
Settings: 101 kPa

Work on `CCCCCCCCCCOS(=O)(=O)[O-].CC[n+]1ccn(C)c1` + O yielded an electrical conductivity (303.15 K, x1 = 0.075) of 2.53 S/m, an electrical conductivity (313.15 K, x1 = 0.075) of 3.16 S/m and an electrical conductivity (323.15 K, x1 = 0.075) of 3.83 S/m. It also gave an electrical conductivity (333.15 K, x1 = 0.075) of 4.55 S/m, an electrical conductivity (343.15 K, x1 = 0.075) of 5.29 S/m and an electrical conductivity (343.15 K, x1 = 0.317) of 1.34 S/m. For the same compound, the electrical conductivity (353.15 K, x1 = 0.075) was 6.06 S/m, the electrical conductivity (353.15 K, x1 = 0.317) was 1.63 S/m and the electrical conductivity (363.15 K, x1 = 0.317) was 1.96 S/m. The electrical conductivity (372.95 K, x1 = 0.317) was 2.23 S/m.
